Experiments:
[1] = molecular target: C-C chemokine receptor type 5 (Homo sapiens, UniProt P51681); assay: Antagonist activity at human CCR5 receptor expressed in CHO cells assessed as inhibition of MIP-1-alpha-stmulated calcium mobilization; assay type: functional, cell-based
[2] = Half life in rat at 30 mg/kg, po; assay type: ADME, organism-based; set-up: dose 30 mg/kg, route oral; details: in vivo
Rattus norvegicus [3] = assay: AUC in rat at 3 mg/kg, iv; assay type: ADME, organism-based, Plasma; set-up: dose 3 mg/kg, route intravenous; details: in vivo
[4] = Half life in rat at 3 mg/kg, iv; assay type: ADME, organism-based; set-up: dose 3 mg/kg, route intravenous; details: in vivo
[5] = Aqueous solubility of the compound; assay type: physicochemical; details: buffer
Caco-2 [6] = assay: Apparent permeability from basolateral to apical side of human Caco-2 cells; assay type: ADME, cell-based
Rattus norvegicus [7] = assay: (§1) AUC in rat at 30 mg/kg, po; assay type: ADME, organism-based, Plasma; set-up: dose 30 mg/kg, route oral; details: in vivo
Caco-2 [8] = assay: Apparent permeability from apical to basolateral side of human Caco-2 cells; assay type: ADME, cell-based
Liver microsomes [9] = assay: Half life in rat liver microsome at 0.2 mg/ml; assay type: ADME
[10] = Cmax in rat at 30 mg/kg, po; assay type: ADME, organism-based; set-up: dose 30 mg/kg, route oral; details: in vivo
Liver microsomes [11] = assay: (§2) Metabolic stability in rat liver microsomes assessed as compound remaining at 0.5 mg/ml after 15 mins; assay type: ADME, Microsome; details: microsomes, 0.25 h
[12] = test system: Human immunodeficiency virus 1; assay: microbe, parasite or virus in culture; details: Human immunodeficiency virus 1, BAL
Description: Antiviral activity against HIV1 BAL by p24 assay

[13] = as §1; assay type: ADME, organism-based, Plasma; set-up: dose 30 mg/kg, route oral; details: plasma
[14] = Clearance in rat at 3 mg/kg, iv; assay type: ADME, organism-based; set-up: dose 3 mg/kg, route intravenous; details: in vivo
[15] = Volume of distribution at steadt state in rat at 3 mg/kg, iv; details: in vivo
[16] = Oral bioavailability in rat at 30 mg/kg; assay type: ADME, organism-based; details: in vivo
[17] = as §2; assay type: ADME, Microsome; details: liver microsomes, read-out: Stability

Sequence of C-C chemokine receptor type 5 (P51681 whole entry): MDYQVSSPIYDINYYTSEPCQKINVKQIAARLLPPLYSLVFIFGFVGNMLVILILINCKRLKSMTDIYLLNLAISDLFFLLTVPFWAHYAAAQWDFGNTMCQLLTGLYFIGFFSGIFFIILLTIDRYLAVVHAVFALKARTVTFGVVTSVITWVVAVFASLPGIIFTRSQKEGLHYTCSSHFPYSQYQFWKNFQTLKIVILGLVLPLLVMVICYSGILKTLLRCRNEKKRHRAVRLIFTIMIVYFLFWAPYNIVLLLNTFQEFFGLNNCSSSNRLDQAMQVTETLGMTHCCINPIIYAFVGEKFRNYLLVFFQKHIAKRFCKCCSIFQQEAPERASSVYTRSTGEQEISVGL

SMILES	IC50 [1] [nM]	t1/2 (Liver microsomes [9]) [min]	Stability (Liver microsomes [11]) [%]	also measured
CCCCN1C(=O)C(CC2CCCCC2)NC(=O)C12CCN(Cc1csc(-c3ccccc3)n1)CC2 (racemic)	570	–	–	–
CCCCN1C(=O)C(CC(C)C)NC(=O)C12CCN(Cc1ccc(Oc3ccccc3)cc1)CC2.Cl (racemic)	–	12	–	half-life [2]: 75.7 min; AUC (Rattus norvegicus [3]): 372 ng; half-life [4]: 13 min; solubility [5]: 14 µM; Papp (Caco-2 [6]): 2.23 ×10⁻⁶ cm/s; AUC (Rattus norvegicus [7]): 290 ng·h/mL; Papp (Caco-2 [8]): 1.51 ×10⁻⁶ cm/s; Cmax [10]: 100 ng/mL
CCCCN1C(=O)[C@H](CC2CCCCC2)NC(=O)C12CCN(Cc1ccc(Sc3ccccc3)cc1)CC2.Cl	170	–	38	–
CCCCN1C(=O)C(CC2CCCC2)NC(=O)C12CCN(Cc1ccc(Oc3ccccc3)cc1)CC2.Cl (racemic)	52	20	–	–
CCCCN1C(=O)C(CC2CCCCC2)NC(=O)C12CCN(Cc1c[nH]c(-c3ccccc3)n1)CC2 (racemic)	160	–	–	–
CCCCN1C(=O)[C@H](CC2CCCCC2)NC(=O)C12CCN(Cc1ccc(Oc3ccc(S(N)(=O)=O)cc3)cc1)CC2.Cl	28	–	24	IC50 [12]: 10 nM
CCCCN1C(=O)[C@H](CC2CCCCC2)NC(=O)C12CCN(Cc1ccc(Oc3ccc(C(=O)NC)cc3)cc1)CC2.Cl	33	–	4	half-life [2]: 72.7 min; solubility [5]: 6 µM; Papp (Caco-2 [8]): 3.51 ×10⁻⁶ cm/s
CCCCN1C(=O)C(CC2CCCCC2)NC(=O)C12CCN(Cc1ccc(Oc3ccccc3)cc1)CC2.Cl (racemic)	–	24	–	AUC (Rattus norvegicus [3]): 400 ng; half-life [4]: 19.9 min; solubility [5]: < 5 µM; Papp (Caco-2 [6]): 0.27 ×10⁻⁶ cm/s; AUC [13]: 74.4 ng·h/mL; Papp (Caco-2 [8]): 0.15 ×10⁻⁶ cm/s; clearance [14]: 113 mL/min/kg
CCCCN1C(=O)C(CCC)NC(=O)C12CCN(Cc1ccc(Oc3ccccc3)cc1)CC2.Cl (racemic)	50	22	–	–
CCCCN1C(=O)C(CC(=O)OCc2ccccc2)NC(=O)C12CCN(Cc1ccc(Oc3ccccc3)cc1)CC2 (racemic)	590	–	–	–
CCCCN1C(=O)[C@H](CC2CCCCC2)NC(=O)C12CCN(Cc1nc(-c3ccccc3)oc1C)CC2	450	–	–	–
CCCCN1C(=O)[C@H](CC2CCCCC2)NC(=O)C12CCN(Cc1ccc(-c3cccnc3)cc1)CC2.Cl.Cl	71	–	29	–
CCCCN1C(=O)[C@H](CC(C)(C)C)NC(=O)C12CCN(Cc1ccc(Oc3ccccc3)cc1)CC2.Cl	79	12	–	–
CC(C)CC1NC(=O)C2(CCN(Cc3ccc(Oc4ccccc4)cc3)CC2)N(CCC(C)O)C1=O.Cl (racemic)	> 3000	12	–	half-life [2]: 48.4 min; Vd [15]: 0.145 L/kg; half-life [4]: 11.1 min; bioavailability [16]: 34.1%; AUC [13]: 10500 ng·h/mL; clearance [14]: 16 mL/min/kg; Cmax [10]: 7200 ng/mL
CCCCN1C(=O)[C@H](CC2CCCCC2)NC(=O)C12CCN(Cc1ccc(Oc3ccc(O)cc3)cc1)CC2.Cl	42	–	22	half-life [2]: 205 min; solubility [5]: < 5 µM; Papp (Caco-2 [6]): 0.14 ×10⁻⁶ cm/s; AUC [13]: 195 ng·h/mL; Papp (Caco-2 [8]): 0.33 ×10⁻⁶ cm/s; Cmax [10]: 100 ng/mL
CCCCN1C(=O)[C@H](CC(C)C)NC(=O)C12CCN(Cc1ccc(Oc3ccccc3)cc1)CC2.Cl	–	7.1	–	–
CCCCN1C(=O)C(CC2CCCCC2)NC(=O)C12CCN(Cc1ccc(Oc3ccccc3)nc1)CC2.Cl.Cl (racemic)	21	–	10	–
CC(C)CC1NC(=O)C2(CCN(Cc3ccc(Oc4ccccc4)cc3)CC2)N(CC(C)C)C1=O.Cl (racemic)	330	15	–	–

SMILES	IC50 [1] [nM]	t1/2 (Liver microsomes [9]) [min]	Stability (Liver microsomes [11]) [%]	also measured
CCCCN1C(=O)[C@H](CC2CCCCC2)NC(=O)C12CCN(Cc1ccc(Oc3ccc(OC)cc3)cc1)CC2.Cl	130	–	34	–
C/C=C/CN1C(=O)C(CC(C)C)NC(=O)C12CCN(Cc1ccc(Oc3ccccc3)cc1)CC2.Cl (racemic)	69	14	–	–
CCCCN1C(=O)[C@H](CC2CCCCC2)NC(=O)C12CCN(Cc1ccc(Oc3ccc(C)cc3)cc1)CC2.Cl	79	–	48	–
CCCCN1C(=O)[C@H](CC2CCCCC2)NC(=O)C12CCN(Cc1ccc(Oc3ccc(NS(C)(=O)=O)cc3)cc1)CC2.Cl	40	–	15	–
CCCCN1C(=O)[C@H](CC2CCCCC2)NC(=O)C12CCN(Cc1ccc(C(=O)Nc3ccccc3)cc1)CC2.Cl	57	–	29	–
CCCCN1C(=O)[C@H](CC2CCCCC2)NC(=O)C12CCN(Cc1ccc(Oc3ccc(C(=O)O)cc3)cc1)CC2.Cl	–	–	–	solubility [5]: 29 µM; Papp (Caco-2 [6]): 16.8 ×10⁻⁶ cm/s; Papp (Caco-2 [8]): 11 ×10⁻⁶ cm/s; remaining at 0.25 h [17]: 22%
CC(C)CC1NC(=O)C2(CCN(Cc3ccc(Oc4ccccc4)cc3)CC2)N(Cc2ccccc2)C1=O (racemic)	300	–	–	–
CCCCN1C(=O)C(CC2CCCCC2)NC(=O)C12CCN(Cc1ccc(OC)cc1)CC2.Cl (racemic)	–	8.3	–	–
CCCCN1C(=O)C(CC2CCCCC2)NC(=O)C12CCN(Cc1c(C)nn(-c3ccccc3)c1C)CC2.Cl.Cl (racemic)	35	–	23	–
CCCCN1C(=O)C(CC2CCCCC2)NC(=O)C12CCN(C(=O)OCc1ccccc1)CC2 (racemic)	3000	–	–	–
CCCCN1C(=O)C(CC(=O)O)NC(=O)C12CCN(Cc1ccc(Oc3ccccc3)cc1)CC2 (racemic)	> 3000	–	–	–
CCCCN1C(=O)C(CCCC2CCCCC2)NC(=O)C12CCN(Cc1ccc(Oc3ccccc3)cc1)CC2.Cl (racemic)	> 3000	23	–	–
CC#CCN1C(=O)C(CC(C)C)NC(=O)C12CCN(Cc1ccc(Oc3ccccc3)cc1)CC2.Cl (racemic)	54	15	–	–
CCCCN1C(=O)[C@H](CC2CCCCC2)NC(=O)C12CCN(CCc1ccc(Oc3ccccc3)cc1)CC2	> 3000	–	–	–
CCCCN1C(=O)[C@H](CC2CCCCC2)NC(=O)C12CCN(Cc1ccc(S(=O)(=O)c3ccccc3)cc1)CC2.Cl	86	–	19	–
CCCCN1C(=O)[C@H](CC2CCCCC2)NC(=O)C12CCN(Cc1ccc(Oc3ccc(F)cc3)cc1)CC2.Cl	92	–	53	–
CCCCN1C(=O)C(CC2CCCCC2)NC(=O)C12CCN(c1ccc(C(=O)OCC)cc1)CC2 (racemic)	> 3000	–	–	–
CCCCN1C(=O)[C@H](CC2CCCCC2)NC(=O)C12CCN(Cc1ccc(C(=O)c3ccccc3)cc1)CC2.Cl	81	–	23	–

— ChEMBL document CHEMBL1177672, “Discovery of orally available spirodiketopiperazine-based CCR5 antagonists” (Bioorg Med Chem, 2010)
